This is an account of results in US7173129B2, “Sulfonamide-substituted chalcone derivatives and their use to treat diseases” (Athero Genics, Inc., priority 2003, dated 2007).

The test system of one series is VCAM-1. Kind of series: In Vitro VCAM-1 Assay (TNF-α stimulated endothelial cells, cell-surface ELISA). It counts as cell-based. The following applies: Homo sapiens, Endothelial cell, 16 h, primary human aortic (HAEC) or pulmonary (HPAEC) endothelial cells, TNF-α 1 ng/ml, approximately 16 hours, ELISA OD 450 nm. Here is the method:
Cell Culture and compound dosing: Cultured primary human aortic (HAEC) or pulmonary (HPAEC) endothelial cells were obtained from Clonetics, Inc., and were used below passage 9. Cells were seeded in 96 well plates such that they would reach 90–95% confluency by the following day. On the following day the cells were stimulated with TNF-α (1 ng/ml) in the presence or absence of compounds dissolved in DMSO such that the final concentration of DMSO is 0.25% or less. To establish a dose curve for each compound, four concentrations in 2- to 5-fold increments were used. Cells were exposed to TNF-α and compounds for approximately 16 hours. The next day the cells were examined under microscope to score for visual signs of toxicity or cell stress.
Following 16 hr exposure to TNF-α and compound the media was discarded and the cells were washed once with Hanks Balanced Salt Solution (HBSS)/Phosphate buffered saline (PBS) (1:1). Primary antibodies against VCAM-1 (0.25 μg/ml in HBSS/PBS+5% FBS) were added and incubated for 30–60 minutes at 37° C. Cells were washed with HBSS/PBS three times, and secondary antibody Horse Radish Peroxidase (HRP)-conjugated goat anti-mouse IgG (1:500 in HBSS/PBS+5% FBS) were added and incubated for 30 minutes at 37° C. Cells were washed with HBSS/PBS four time and TMB substrate were added and incubated at room temperature in the dark until there was adequate development of blue color. The length of time of incubation was typically 5–15 minutes. 2N sulfuric acid was added to stop the color development and the data was collected by reading the absorbance on a BioRad ELISA plate reader at OD 450 nm. The results are expressed as IC50 values (the concentration (micromolar) of compound required to inhibit 50% of the maximal response of the control sample stimulated by TNF-α only).

In turn, `COc1cc(OC)c(-c2cccs2)cc1/C=C/C(=O)c1ccc(S(=O)(=O)Nc2ccc(C(F)(F)F)cn2)cc1` [Example 12, 4-[3E-(2,4-Dimethoxy-5-thien-2-ylphenyl)acryloyl]-N-(5-trifluoromethylpyridin-2-yl)benzenesulfonamide] showed a melting point of 228 to 229 °C. This molecule came in with an IC50 with VCAM-1 of less than 10 µM.

In turn, `COc1cc(OC)c(-c2cccs2)cc1/C=C/C(=O)c1ccc(S(=O)(=O)Nc2ccc(Cl)cn2)cc1` [Example 10, N-(5—Chloropyridin-2-yl)-4-[3E-(2,4-dimethoxy-5-thien-2-ylphenyl)acryloyl]benzenesulfonamide] displayed a melting point of 228 to 229 °C. The IC50 in the series on VCAM-1 is less than 10 µM.

The molecule `CCCC(=O)NS(=O)(=O)c1ccc(C(=O)/C=C/c2cc(-c3cc4ccccc4n3C)c(OC)cc2OC)cc1` [Example 37, N-Butyryl-4-{3E-[2,4-dimethoxy-5-(1-methyl-1H-indol-2-yl)phenyl]acryloyl}benzenesulfonamide] returned a melting point of 144 to 146 °C. In addition, in the series with VCAM-1, the IC50 was less than 5 µM.

`COc1cc(OC)c(-c2cccs2)cc1/C=C/C(=O)c1ccc(S(=O)(=O)Nc2nccs2)cc1` [Example 8, 4-[3E-(2,4-Dimethoxy-5-thien-2-ylphenyl)acryloyl]-N-thiazol-2-ylbenzenesulfonamide] registered a melting point of 220 to 221 °C. This molecule also yielded an IC50 in the series on VCAM-1 of less than 5 µM.

`COc1cc(OC)c(-c2cc3ccccc3[nH]2)cc1/C=C/C(=O)c1ccc(S(=O)(=O)Nc2ccccn2)cc1` [Example 57, 4-{3E-[5-(1H-Indol-2-yl)-2,4-dimethoxyphenyl]acryloyl}-N-pyridin-2-ylbenzenesulfonamide]: the melting point was in the range of 206 to 208 °C. The IC50 with VCAM-1 is less than 5 µM.

Molecule `CONS(=O)(=O)c1ccc(C(=O)/C=C/c2cc(-c3cc4ccccc4n3C)c(OC)cc2OC)cc1` [Example 30, 4-{3E-[2,4-Dimethoxy-5-(1-methyl-1H-indol-2-yl)phenyl]acryloyl}-N-methoxybenzenesulfonamide] had a melting point of 214 to 216 °C. Besides, in the series on VCAM-1, the IC50 was less than 10 µM.

In the case of `COc1cc(OC)c(-c2cccs2)cc1/C=C/C(=O)c1ccc(S(=O)(=O)NCCN2CCOCC2)cc1` [Example 20, 4-[3E-(2,4-Dimethoxy-5-thien-2-ylphenyl)acryloyl]-N-(2-morpholin-4-yl-ethyl)benzenesulfonamide], the melting point lay in the range of 171 to 172 °C. In the series with VCAM-1, this molecule gave an IC50 of less than 5 µM.

`COc1cc(OC)c(-c2cccs2)cc1/C=C/C(=O)c1ccc(S(=O)(=O)Nc2ncccn2)cc1` [Example 3, 4-[3E-(2,4-Dimethoxy-5-thien-2-ylphenyl)acryloyl]-N-pyrimidin-2-ylbenzenesulfonamide]: the melting point is 215 °C (dec.). Besides, the IC50 in the series on VCAM-1 was less than 5 µM.

For the molecule `COc1cc(OC)c(-c2cccs2)cc1/C=C/C(=O)c1ccc(S(=O)(=O)NCc2cccnc2)cc1` [Example 19, 4-[3E-(2,4-Dimethoxy-5-thien-2-ylphenyl)acryloyl]-N-pyridin-3-ylmethylbenzenesulfonamide], the melting point was in the range of 167 to 168 °C. Further, the IC50 in the series with VCAM-1 is less than 5 µM.

As to `COc1cc(OC)c(-c2cccs2)cc1/C=C/C(=O)c1ccc(S(=O)(=O)Nc2ccc(F)cn2)cc1` [Example 11, 4-[3E-(2,4-Dimethoxy-5-thien-2-ylphenyl)acryloyl]-N-(5-fluoropyridin-2-yl)benzenesulfonamide], the melting point lay within 194 to 195 °C. This molecule displayed an IC50 in the series with VCAM-1 of less than 5 µM.

In the case of `COc1cc(OC)c(N2CCCC2)cc1/C=C/C(=O)c1ccc(S(=O)(=O)NCCCn2ccnc2)cc1` [Example 54, 4-[3E-(2,4-Dimethoxy-5-pyrrolidin-1-ylphenyl)acryloyl]-N-(3-imidazol-1-ylpropyl)benzenesulfonamide], the melting point lay in the range of 140 to 143 °C. The IC50 in the series with VCAM-1 was greater than 5 µM.

Molecule `COc1cc(OC)c(-c2cc3ccccc3[nH]2)cc1/C=C/C(=O)c1ccc(S(=O)(=O)NCCCn2ccnc2)cc1` [Example 50, N-(3-Imidazol-1-yl-propyl)-4-{3E-[5-(1H-indol-2-yl)-2,4-dimethoxy-phenyl]acryloyl}benzenesulfonamide] registered a melting point of 197 to 200 °C. The molecule further came in with an IC50 in the series on VCAM-1 greater than 10 µM.

In turn, `COc1cc(OC)c(-c2cc3ccccc3n2C)cc1/C=C/C(=O)c1ccc(S(=O)(=O)NO)cc1` [Example 34, 4-{3E-[2,4-Dimethoxy-5-(1-methyl-1H-indol-2-yl)phenyl]acryloyl}-N-hydroxybenzenesulfonamide] returned a melting point greater than 260 °C. This molecule also registered an IC50 in the series with VCAM-1 greater than 10 µM.

`COc1cc(OCC(CO)CO)c(/C=C/C(=O)c2ccc(S(=O)(=O)Nc3cc(C)on3)cc2)cc1-c1cccs1` [Example 13, 4-{3E-[2-(3-Hydroxy-2-hydroxymethylpropoxy)-4-methoxy-5-thien-2-ylphenyl]acryloyl}-N-(5-methylisoxazol-3-yl)benzenesulfonamide]: the melting point was in the range of 165 to 166 °C. The molecule also showed an IC50 in the series on VCAM-1 greater than 10 µM.

As to `COc1cc(OC)c(-c2cccs2)cc1/C=C/C(=O)c1ccc(S(=O)(=O)Nc2cc[nH]n2)cc1` [Example 6, 4-[3E-(2,4-Dimethoxy-5-thien-2-ylphenyl)acryloyl]-N-(1H-pyrazol-3-yl)benzenesulfonamide], the melting point fell in the range of 142 to 145 °C. Further, in the series on VCAM-1, the IC50 is less than 5 µM.

As for `CCC(=O)NS(=O)(=O)c1ccc(C(=O)/C=C/c2cc(-c3cc4ccccc4[nH]3)c(OC)cc2OC)cc1` [Example 45, 4-{3E-[5-(1H-Indol-2-yl)-2,4-dimethoxyphenyl]acryloyl}-N-propionyl-benzenesulfonamide], the melting point lay within 223 to 225 °C. Moreover, in the series on VCAM-1, the 50% inhibitory concentration (IC50) is less than 5 µM.

In turn, `COc1cc(OC)c(-c2cccs2)cc1/C=C/C(=O)c1ccc(S(=O)(=O)NCC(F)(F)F)cc1` [Example 24, 4-[3E-(2,4-Dimethoxy-5-thien-2-ylphenyl)acryloyl]-N-(2,2,2-trifluoroethyl)benzenesulfonamide] gave a melting point of 167 to 168 °C. This molecule also showed an IC50 in the series with VCAM-1 of less than 5 µM.

For `COc1cc(OC)c(-c2cccs2)cc1/C=C/C(=O)c1ccc(S(=O)(=O)NC(C)(C)C(=O)O)cc1` [Example 27, 2-{4-[3E-(2,4-Dimethoxy-5-thien-2-yl-phenyl)acryloyl]benzenesulfonylamino}-2-methylpropionic acid], the melting point is 205 °C (dec.). In addition, the IC50 in the series with VCAM-1 was less than 10 µM.

`COc1cc(OC)c(N2CCCC2)cc1/C=C/C(=O)c1ccc(S(=O)(=O)Nc2ccccn2)cc1` [Example 52, 4-[3E-(2,4-Dimethoxy-5-pyrrolidin-1-yl-phenyl)-acryloyl]-N-pyridin-2-yl-benzenesulfonamide] registered a melting point of 124 to 128 °C. In addition, the IC50 with VCAM-1 is less than 5 µM.

Take `COc1cc(OCCN2CCOCC2)c(/C=C/C(=O)c2ccc(S(=O)(=O)Nc3cc(C)on3)cc2)cc1-c1cccs1.Cl` [Example 14, 4-{3E-[4-Methoxy-2-(2-morpholin-4-yl-ethoxy)-5-thien-2-ylphenyl]acryloyl}-N-(5-methyl-isoxazol-3-yl)benzenesulfonamide hydrochloride]: the melting point is greater than 260 °C. This molecule registered an IC50 in the series on VCAM-1 of less than 5 µM.
